Assay results reported in US20250034139A1, “AMINE COMPOUNDS HAVING ANTI-INFLAMMATORY, ANTIFUNGAL, ANTIPARASITIC, AND ANTICANCER ACTIVITY” (PHARMA CINQ, LLC, priority 2013, published 2025).
Marks after values point to notes of the source that are not given here.

Experiments:
[1] = test system: HCT-116 colon adenocarcinoma cells; assay: Example Q: HCT-116 liver metastases of human colorectal cancer in nude mice; format: in vivo; conditions: 240 μmol/kg/day oral, 28 days
Description: A major cause of morbidity and mortality in patients with colorectal cancer is metastasis of the tumor into the liver; colorectal cancer can often be successfully resected from the primary site, but metastases to the liver are much less accessible to surgical treatment. A mouse model of colorectal cancer metastasis to the liver has been established, using HCT-116 colon adenocarcinoma cells injected into the spleen of athymic (nude) mice. The HCT-116 cancer cells spontaneously spread from the spleen into the liver via the circulation, and they form tumors in the liver (Ishizu, K., Sunose, N., Yamazaki, K., Tsuruo, T., Sadahiro, S., Makuuchi, H., and Yamori, T. Development and Characterization of a Model of Liver Metastasis Using Human Colon Cancer HCT-116. Biol. Pharm. Bull. 2007, 30(9):1779-1783).
Mice (female Hsd:athymic nude-Foxn1^nu) were anesthetized with xylazine/ketamine intraperitoneal injection, followed by incision approximately 10 mm on the left subcostal region (area disinfected with ethanol) to expose the peritoneum. The peritoneum was opened for about 8 mm near the spleen, and 2.5×10^6 cells in 50 μL PBS were injected into the spleen using a 30G needle. The spleen was repositioned, and the surgical area was closed using sutures and clips.
The day after receiving cells, mice were randomized into groups of five based upon body weight to provide groups with approximately equivalent mean body weight. Mice received a single, daily oral dose of test article or vehicle (1% hydroxypropylmethylcellulose) beginning 48 hours following cell injection into the spleen.
At study termination 28 days after HCT-116 cell injection, body weights were recorded, and spleens and livers were removed, weighed and fixed in 10% formalin. Livers were sectioned and stained; the relative areas of normal and tumor tissue were quantified in histology sections with quantitative planimetry software.

[2] = test system: Hep3B hepatocellular carcinoma cell line; conditions: for Tumor Weight (g) Mean ± SEM: Hep3B in liver of nude mice, day 35, oral daily, sorafenib 30 mg/kg/day alone, 20 mg/kg/day in combination, AC 180, AK and AB 360 μmol/kg/day; for Body Weight (g) Mean ± SEM Initial: in vivo; for Complete Regressions: number of mice with no viable tumor at necropsy, doses as Table 35
Description: Hepatocellular carcinoma (HCC) is one of the most common and lethal cancers worldwide, generally developing as a consequence of chronic infection with hepatitis B or C viruses. […] The Hep3B hepatocellular carcinoma cell line is human in origin, contains genetic traces of hepatitis B virus, and can be injected into the livers of athymic immunocompromised mice as a model of primary HCC. […] The test compounds were all administered orally.
The test compounds of the invention were suspended in 1% hydroxypropylmethylcellulose (HPMC) using a sonicator equipped with a microtip to minimize particle size and maximize uniformity of the suspension. Sorafenib was dissolved in a 1:1 mixture of Cremophor EL and ethanol by heating to 60° C. for 1 minute and then sonicating for 10 minutes to fully suspend. Female nude mice (Hsd:athymic nude-Foxn1^nu) weighing approximately 25 g were anesthetized with ketamine/xylazine, laid on their backs, and a 1-cm transverse incision made through the skin and peritoneum of the left upper abdomen. The mediant lobe of the liver was exposed by applying gentle pressure on the abdomen. 1.5-2×10^6 Hep3B cells in a 20 μL volume of matrigel:EMEM serum free (1:1) were slowly implanted by subserosal injection into the liver using a 27-gauge needle on a Hamilton syringe. The liver was allowed to slip back into place, and the peritoneum was closed with sutures and wound clips.
Mice were divided into 8 groups of mice each following injection of cells; the vehicle/vehicle group comprised 12 mice and the other groups comprised 8 or 9. Mice began receiving oral test drug treatments 48 hr post cell injection.
The test compounds, sorafenib, and vehicles were administered by oral gavage. Sorafenib or its cremophor-containing vehicle were given in the morning and compounds of the invention or their HPMC vehicle was administered in the afternoon each day; all animals received two gavage treatments of drugs or appropriate vehicles daily.

PC-3 cells = assay: Example P: PC-3 human hormone-independent prostate cancer xenografts in nude mice; format: in vivo
Experimental: Standard models for prostate cancer use subcutaneous xenografts of human prostate cancer cell line. Local measurable tumors are produced at the site of injection of the cells, and they metastasize to critical tissues such as the bones, lungs and liver. Mortality in this model is due to metastases impairing tissue function. Compounds of the invention were assessed for inhibition of tumor growth and reduction or delay of mortality in the PC-3 prostate cancer model, which mimics an advanced, androgen-independent stage of prostate cancer.
10 female nude mice (female Hsd:athymic nude-Foxn1^nu) received PC-3 cells (5×10^6 per mouse in 0.1 mL PBS) by subcutaneous injection into the right hind flank. […] Mice received AC or vehicle (saline) via intraperitoneal (i.p.) injection once daily until day 79. • 1. […] Compound AC: 120 μmol/kg/day.
Tumors were measured with calipers twice per week, and body weights and mortality were also monitored.

[3] = test system: Vit-D3 activated THP-1 cells; assay: Example B: JC-1 mitochondrial loading (mitochondrial membrane potential); format: cell-based, Human; conditions: 5 hours
Experimental: In this experiment, cell viability was monitored and uptake and accumulation of acridine orange, a lysosomotropic fluorescent dye, was used to assess lysosomal acidification and integrity. JC-1 dye was used to measure effects of test compounds on mitochondrial membrane potential (MMP); reduction of MMP is a feature of apoptotic cell death.
• 1. Vit-D3 activated THP-1 cells (0.5×10^6 cells in 2 ml) were transferred to the wells of a 24-well dish • 2. […] […] LPS from E. coli 0111:B4 (1 ng/ml final concentration) was added to some wells • 5. After 5 hours viable cell count, Acridine Orange (A.O.) uptake and JC-1 mitochondrial loading were determined by fluorescence-activated cell sorting (FACS)
THP-1 cells (p39) treated with 0.1 μM vit-D3 (100 μM) in DMSO] for 3 days were counted, spun down, resuspended in serum-free RPMI (Lonza 12-115F) and transferred to the wells of two 24-well dishes (0.5×10^6 cells in 2 ml). […] Crude-LPS from E. coli 0111:B4 was added to some wells (1 ng/ml final conc) and the plates placed in a 37 C incubator. 1 μl of Baf A1 (50 nM final conc) was added to one well (no LPS) at T=4 hours to serve as a compensation control for Acridine Orange loading. After 5 hours, 500 μl aliquots of cells were transferred to FACS tubes and viable cell counts, A.O. loading and JC-1 accumulation determined by FACS.

[4] = HCT-116 liver metastases, nude mice
[5] = AC 120 μmol/kg/day i.p. once daily, group of 5

CCCCCCOc1ccc(CNc2ccnc3ccccc23)cc1 [AA, N-[4-(Hexyloxy)benzyl]quinolin-4-amine]
Final Body Weight Grams [1, 4]: 28.2 ± 1.5 NS Grams
Liver Weight % of Body Weight [1, 4]: 5.3 ± 0.2%
Tumor Area % of Vehicle Group [1, 4]: 1.5% *
Tumor Area % of Total Liver ([1]; HCT-116 liver metastases, nude mice, histology planimetry): 0.2 ± 0.26%

CCCCCCOc1cccc(CNc2ncnc3ccccc23)c1 [AK, N-[3-(Hexyloxy)benzyl]quinazolin-4-amine]
Tumor Weight (g) Mean ± SEM [2]: 1.56 ± 0.39^ g
Body Weight (g) Mean ± SEM Initial [2]: 25.9 ± 0.7 g
Complete Regressions ([2]; day 35): 2
reduction of tumor size versus vehicle ([2]; single agents, oral, day 35, sorafenib 30 mg/kg/day): numerically but not statistically significant reduction in tumor size versus vehicle

CCCCCCOc1cccc(CNc2ccnc3ccccc23)c1 [Compound AC, N-[3-(Hexyloxy)benzyl]quinolin-4-amine]
mean body weight at end of study (PC-3 cells; AC 120 μmol/kg/day i.p.): 28.9 ± 1.3 g
mice regressed more than 50% from the initial tumor size (PC-3 cells; AC 120 μmol/kg/day i.p.): one
mice with no detectable tumors at end of study (complete regressions) (PC-3 cells; AC 120 μmol/kg/day i.p.): two
day of death of the one mouse that died (PC-3 cells; [5]): 65 days
number of mice surviving until the study was terminated on day 79 (PC-3 cells; [5]): 4
tumor size, average % of initial size (PC-3 cells; day 77, AC 120 μmol/kg/day i.p.): 949%
initial group body weight (PC-3 cells; pretreatment): 26.8 ± 0.5 g
Tumor Weight (g) Mean ± SEM [2]: 0.49 ± 0.17 g
Body Weight (g) Mean ± SEM Initial [2]: 25.4 ± 0.5 g
Complete Regressions ([2]; day 35): 2
JC-1 Red cells (functional mitochondria) percent change from DMSO (no LPS), Mean ± SE ([3]; 0.1 μM AC, 1 ng/ml LPS): −1.66 ± 0.96%
JC-1 Red cells (functional mitochondria) percent change from DMSO (no LPS), Mean ± SE ([3]; 0.1 μM AC, No LPS): 1.18 ± 0.91%
JC-1 Red cells (functional mitochondria) percent change from DMSO (no LPS), Mean ± SE ([3]; 0.5 μM AC, 1 ng/ml LPS): −7.19 ± 1.52%
JC-1 Red cells (functional mitochondria) percent change from DMSO (no LPS), Mean ± SE ([3]; 0.5 μM AC, No LPS): −4.39 ± 1.40%
JC-1 Red cells (functional mitochondria) percent change from DMSO (no LPS), Mean ± SE ([3]; 1.0 μM AC, 1 ng/ml LPS): −16.41 ± 2.60%
JC-1 Red cells (functional mitochondria) percent change from DMSO (no LPS), Mean ± SE ([3]; 1.0 μM AC, No LPS): −10.40 ± 2.08%
excess of the Vehicle group's liver weight/body weight ratio over the treated group [1]: 12%
area of liver invaded by metastatic cancer cells, in words ([1]; histology planimetry): markedly reduced the area of liver invaded by metastatic cancer cells
